Data: US12404252B2, “Salt of 2-amino-2-(2-(1-decyl-1H-1,2,3-triazol-4-yl)ethyl)propane-1,3-diol, and pharmaceutical composition containing same” (NEXTGEN BIOSCIENCE CO., LTD, priority 2021, dated 2025)
Read-outs that look alike come from different tables or passages of the source.

Legend:
[1] = Corrosion of a sample stored together with the substance at 60° C.; type: physicochemical; conditions: stored together with the sample for 2 weeks at 60° C.
Description: FIG. 12 depicts photograph showing the results of checking the degree of corrosion of a sample after storing each of the free base of Compound 1, Compound 1a, and a hydrochloride salt of Compound 1 together with the sample under 60° C. conditions for 2 weeks.

Photostability test = type: physicochemical
Description: For a photostability test, 10 mg of Compound 1a was exposed to 1.2 million lux hours of ultraviolet and visible light at room temperature. For an oxidation stability test, 0.2 mL of 30% H2O2 and 1 mg of Compound 1a were placed in a 2-mL vial and stored at 25° C. for up to 24 hours. The photostability and oxidation stability conditions used to evaluate the fumarate salt of Compound 1 and the evaluation results are as follows.

[2] = pH stability and salinity stability, 40±2° C.; type: physicochemical
[3] = Standard stock solution stability, 40° C./75±5% RH; type: physicochemical; conditions: 40° C./75% RH
Description: The stability of the crystalline compound was examined at 40° C./75±5% RH. Physical stability was examined through comparative XRPD analysis before and after the test, and chemical stability was examined by HPLC method. The experimental conditions used in the stability test for Compound 1a and the test results are as follows.
40° C./75±5% RH: Conditions in which the vial was open and upright.
(§1) A required amount (˜1 mg) of solid material was dissolved in 1 mL of a diluent (1:1 methanol/water), and the prepared solution was analyzed by HPLC.

[4] = Oxidation stability test (30% H2O2); type: physicochemical
[5] = pH stability and salinity stability, 40±2° C.; type: physicochemical; remark: listed apart in the source
Description: pH and salinity stability tests for the hemifumirate salt of Compound 1 were performed at an initial target concentration of 2 mg/mL. The pH and salinity stability conditions used to evaluate the hemifumirate salt of Compound 1 and the evaluation results are as follows.
• 40±2° C.: Conditions in which the vial was capped and upright • Storage container for stability: 2-mL screw neck clear glass vial (manufactured by La-Pha-Pack) • Target concentration: ˜ 2 mg/mL (adding the sample to 1 mL of medium, followed by vortexing for 30 seconds) • 500 μL of the test mixture was dissolved in 500 μL of a diluent (1:1 methanol/water), and the prepared solution was analyzed by HPLC without filtration.

[6] = Hygroscopicity test by DVS; type: physicochemical; conditions: for DVS remark (adsorption at 90% RH): water adsorption at 90% RH
Text: Dynamic vapor sorption (DVS) is a method that has been used for a long time to investigate the interactions between active pharmaceutical ingredients (APIs), and pharmaceutical preparations and water. Here, to analyze the water absorption rate of a sample at a specific temperature, measurements are made by exposing the sample to the desired relative humidity using a DVS water sorption analyzer (hygroscopicity analyzer) until the change in weight of the sample stabilizes.

[7] = Standard stock solution stability, 60° C./75±5% RH; type: physicochemical; conditions: 2 weeks under 60° C./75±5% RH
Description: The stability of the crystalline compound was under 60° C./75±5% RH conditions, and the purity thereof was examined by HPLC method. The experimental conditions used in the stability test for Compound 1a and the test results are as follows.
60° C./75±5% RH: Conditions in which the vial was open and upright.
as §1

[8] = Solubility in aqueous media (HPLC); type: physicochemical; conditions: same conditions as Compound 1a, some samples
Description: The solubility of Compound 1a prepared in Example 1 was evaluated in several different media, including pH 1.2 hydrochloric acid buffer, pH 3.0 citrate buffer, pH 4.7 acetate buffer, pH 6.8 phosphate buffer, simulated gastric fluid, fasted-state simulated intestinal fluid, fed-state simulated intestinal fluid, and water. About 2.17 mg of sample (based on the free base of Compound 1) for each medium was taken into a 2-mL transparent glass vial and […] of medium was added (constituents of the salt were considered Compound 1: counterion=1:0.5; target concentration: 2 mg/mL). The mixture was stirred using a magnetic stirrer at 250 RPM for 24 hours at 25° C. Next, the pH and appearance of the mixture were recorded and the mixture was filtered through a MultiScreen® HTS-HV 96-well plate (manufactured by Merck; 0.45-μm hydrophilic, low-protein-binding Durapore® membrane). Solubility was determined using HPLC, and a calibration curve was created by injecting a known concentration of Compound 1a. The filtered sample was injected (diluted appropriately as necessary) and the concentration of Compound 1a (mg/mL) in the filtrate was calculated from the calibration curve (taking salt coefficient into account). The analysis results are as follows.

[9] = biological target: hERG potassium ion channel (Homo sapiens, UniProt Q12809)
Sequence of hERG potassium ion channel (Q12809 whole entry): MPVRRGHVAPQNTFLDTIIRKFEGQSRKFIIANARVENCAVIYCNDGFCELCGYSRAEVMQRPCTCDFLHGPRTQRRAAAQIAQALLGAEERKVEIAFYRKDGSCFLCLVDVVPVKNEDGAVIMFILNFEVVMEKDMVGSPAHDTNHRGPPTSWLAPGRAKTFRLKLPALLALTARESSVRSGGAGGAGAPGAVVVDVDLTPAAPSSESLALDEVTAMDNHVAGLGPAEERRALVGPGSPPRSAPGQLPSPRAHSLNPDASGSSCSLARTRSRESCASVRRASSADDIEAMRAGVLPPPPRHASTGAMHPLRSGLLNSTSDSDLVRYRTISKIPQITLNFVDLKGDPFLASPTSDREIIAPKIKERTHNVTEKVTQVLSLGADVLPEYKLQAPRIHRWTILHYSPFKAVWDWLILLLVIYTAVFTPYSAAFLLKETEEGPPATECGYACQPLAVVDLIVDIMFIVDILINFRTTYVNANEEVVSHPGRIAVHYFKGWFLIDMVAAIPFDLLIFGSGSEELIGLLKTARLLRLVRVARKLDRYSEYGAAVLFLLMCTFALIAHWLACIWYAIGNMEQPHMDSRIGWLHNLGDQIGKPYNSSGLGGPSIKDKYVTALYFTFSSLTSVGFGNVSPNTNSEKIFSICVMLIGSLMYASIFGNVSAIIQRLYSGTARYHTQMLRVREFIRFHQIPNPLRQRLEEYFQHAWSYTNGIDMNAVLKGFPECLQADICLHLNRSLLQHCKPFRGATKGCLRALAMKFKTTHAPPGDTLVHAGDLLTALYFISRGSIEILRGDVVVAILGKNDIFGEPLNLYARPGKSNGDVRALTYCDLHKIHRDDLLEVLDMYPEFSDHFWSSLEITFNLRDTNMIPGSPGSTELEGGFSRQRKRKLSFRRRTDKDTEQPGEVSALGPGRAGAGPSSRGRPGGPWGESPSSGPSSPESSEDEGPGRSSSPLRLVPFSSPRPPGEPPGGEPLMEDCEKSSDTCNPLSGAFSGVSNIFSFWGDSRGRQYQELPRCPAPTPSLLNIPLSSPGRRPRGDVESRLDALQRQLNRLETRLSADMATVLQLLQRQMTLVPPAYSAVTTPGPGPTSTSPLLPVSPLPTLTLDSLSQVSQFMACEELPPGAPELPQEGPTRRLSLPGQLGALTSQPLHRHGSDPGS

pKa of the free base = type: physicochemical; conditions: natural conditions
Description: The method for preparing the salt of the present invention and the process of selecting the salt thereby are as follows. […] Specifically, acids that were appropriate for matching the pKa of the free base of Compound 1 described above were calculated by computer, and these acids were mainly identified as acids having a pKa of about 2 to 5.

[10] = system: dextran sulfate sodium (DSS)-induced colitis model; experiment: DSS-induced colitis mouse model, disease activity index; type: in vivo; conditions: DSS mice
Description: The effectiveness of Compound 1a against inflammatory bowel disease was evaluated using the dextran sulfate sodium (DSS)-induced colitis model. In the mouse model, inflammatory bowel disease was induced by administering DSS to mice at a concentration of 2.5% via drinking water. Mice were divided into a test group administered Compound 1a, a positive control group administered ozanimod or MTX (methotrexate), a vehicle group, and a normal control group, and each group had n=10. Compound 1, a compound of the present invention, was orally administered at doses of 5 and 10 mg/kg once a day for 7 days to the inflammatory bowel disease-induced model, and ozanimod as a positive control was administered orally at a dose of 5 mg/kg once a day, and MTX (methotrexate) as a positive control was administered intraperitoneally at a dose of 3 mg/kg three times a week.
DAI represents the total score of weight loss relative to initial weight, stool consistency, and degree of intestinal bleeding of the mouse. The criteria for calculation of DAI are shown in Table 10 below, and DAI was evaluated on days 0, 1, 2, 3, 4, 5, 6, 7, and 8.

[11] = system: unilateral ureteral obstruction (UUO) model; experiment: Unilateral ureteral obstruction (UUO) renal fibrosis model; type: in vivo; conditions: UUO mice, 30 mg/kg/day orally, 2 weeks
Description: The antifibrotic effect of Compound 1a in renal disease was evaluated using the unilateral ureteral obstruction (UUO) model, which is a renal fibrotic disease model. Kidney fibrosis was induced by unilateral ureteral obstruction of mice, and then Compound 1a at 10, 30, and 90 mg/kg/day and the positive control substance telmisartan at 30 mg/kg/day were orally administered to the mice once a day for 2 weeks.

[12] = system: adenine-induced chronic kidney disease model; experiment: Adenine-induced chronic kidney disease model; type: in vivo; conditions: adenine-induced CKD mice, 10 mg/kg/day orally, 3 weeks
Description: The antifibrotic effect of Compound 1a was evaluated using an adenine-induced chronic kidney disease model. 0.5% adenine (in 0.5% CMC) was orally administered to mice for 4 weeks to induce chronic kidney disease, and Compound 1a at 10, 30, and 90 mg/kg/day and the positive control substance telmisartan 10 mg/kg/day were administered orally to the mice for 3 weeks, followed by measurement of serum creatinine, serum BUN, and kidney hydroxyproline, and histopathology. In addition, the tubular-interstitial index value was determined based on the above measurement results.

## CCCCCCCCCCn1cc(CCC(N)(CO)CO)nn1.Cl [Comparative Example 1, reference compound]
[1]
  degree of corrosion of the sample: corrosion occurred
Photostability test; Photostability 1.2 million lux hours exposed
  Purity %: 98.75%
Photostability test; Photostability 1.2 million lux hours unexposed
  Purity %: 99.35%
[2]; Saline (0.9% NaCl)/40° C., 1-week, listed as Hydrochloride salt of Compound 1
  Purity %: 98.00%
[2]; Saline (0.9% NaCl)/40° C., 1-week, listed as hydrochloride salt of Compound 1
  Purity %: ≤ 98%
[2]; pH 6.8 phosphate buffer/40° C., 2-week, listed as Hydrochloride salt of Compound 1
  Purity %: 97.87%
[2]; pH 6.8 phosphate buffer/40° C., 2-week, listed as hydrochloride salt of Compound 1
  Purity %: less than 98%
[3]; 1-week
  Purity %: 99.00%
[3]; 1-week, listed as Hydrochloride salt of Compound 1
  XRPD (physical stability): Turned into liquid
[3]; 1-week, listed as hydrochloride salt of Compound 1
  XRPD (physical stability): turned into a liquid phase
[3]; 2-week
  Purity %: 99.22%
[3]; Initial
  Purity %: 99.34%
  XRPD (physical stability): Crystalline
[4]; 30% H2O2 60° C. for 20 hours
  Purity %: 91.23%
[5]; Saline (0.9% NaCl)/40° C., Initial
  Purity %: 99.43%
[5]; pH 6.8 phosphate buffer/40° C., 1-week
  Purity %: 98.04%
[5]; pH 6.8 phosphate buffer/40° C., Initial
  Purity %: 98.93%
[6]; natural conditions
  behaviour in natural conditions: exhibited deliquescence
[6]
  DVS remark (adsorption at 90% RH): 49.5%
[6]; listed as hydrochloride salt of Compound 1
  DVS remark (adsorption at 90% RH): 49.5%
[7]
  change in appearance: turned into a liquid phase
[8]
  appearance in aqueous media: undissolved suspension form in some samples

## CCCCCCCCCCn1cc(CCC(N)(CO)CO)nn1 [Compound 1, 2-Amino-2-(2-(1-decyl-1H-1,2,3-triazol-4-yl)ethyl) propane-1,3-diol]
[9]; 1 μM
  compensated suppression rate (%) of hERG channel currents: 9.94±1.96%
[9]; 3 μM
  compensated suppression rate (%) of hERG channel currents: 13.98±4.48%
[9]; 10 μM
  compensated suppression rate (%) of hERG channel currents: 35.03±12.09%
[9]; 30 μM
  compensated suppression rate (%) of hERG channel currents: 82.62±7.31%
pKa of the free base
  pKa: 8.12
[4]; oxidative stress conditions, after 20 hours
  decomposition rate: ≥ 8%

## CCCCCCCCCCn1cc(CCC(N)(CO)CO)nn1 [Compound 1b, 2-amino-2-(2-(1-decyl-1H-1,2,3-triazol-4-yl)ethyl) propane-1,3-diol]
[6]; 90% RH, listed as Example 2
  hygroscopicity (DVS evaluation, in words): low hygroscopicity
[6]; listed as Example 2
  DVS remark (adsorption at 90% RH): 4.563%

## CN(Cc1cnc2nc(N)nc(N)c2n1)c1ccc(C(=O)N[C@@H](CCC(=O)O)C(=O)O)cc1 [MTX, methotrexate, reference compound]
[10]; 3 mg/kg intraperitoneally three times a week
  disease activity index (DAI) compared to negative control group (vehicle): statistically significantly decreased

## CCCCCCCCCCn1cc(CCC(N)(CO)CO)nn1.O=C(O)CCC(=O)O [compound 2]
[6]
  DVS remark (adsorption at 90% RH): 19.42%

## CC(=O)O.CCCCCCCCCCn1cc(CCC(N)(CO)CO)nn1 [compound 3]
[6]
  DVS remark (adsorption at 90% RH): 34.33%

## CC(=O)O.CCCCCCCCCCn1cc(CCC(N)(CO)CO)nn1 [compound 4]
[6]
  DVS remark (adsorption at 90% RH): 33.67%

## CCCCCCCCCCn1cc(CCC(N)(CO)CO)nn1.O=C(O)CCCCC(=O)O [compound 5]
[6]
  DVS remark (adsorption at 90% RH): 22.46%

## CCCCCCCCCCn1cc(CCC(N)(CO)CO)nn1.O=C(O)CC(O)(CC(=O)O)C(=O)O [compound 6]
[6]
  DVS remark (adsorption at 90% RH): 22.80%

## CC(C)Oc1ccc(-c2nc(-c3cccc4c3CC[C@@H]4NCCO)no2)cc1C#N [ozanimod, reference compound]
[10]; 5 mg/kg orally once a day
  disease activity index (DAI) compared to negative control group (vehicle): statistically significantly decreased

## CCCc1nc2c(C)cc(-c3nc4ccccc4n3C)cc2n1Cc1ccc(-c2ccccc2C(=O)O)cc1 [telmisartan, reference compound]
[11]
  Kidney hydroxyproline: statistically significantly reduced
[12]
  kidney fibrosis (tubular-interstitial index): statistically significantly decreased
